# Assay results taken from ChEMBL document CHEMBL5696441 (Nat Chem Biol, 2011).
# Experiments:
# [1] = target: T1, Testis-specific serine/threonine-protein kinase 1 (Homo sapiens) (UniProt Q9BXA7); assay: Inhibition of TSSK1B (unknown origin) assessed as remaining activity at 1 uM by Kinome scan method relative to control
# T1 sequence (whole entry): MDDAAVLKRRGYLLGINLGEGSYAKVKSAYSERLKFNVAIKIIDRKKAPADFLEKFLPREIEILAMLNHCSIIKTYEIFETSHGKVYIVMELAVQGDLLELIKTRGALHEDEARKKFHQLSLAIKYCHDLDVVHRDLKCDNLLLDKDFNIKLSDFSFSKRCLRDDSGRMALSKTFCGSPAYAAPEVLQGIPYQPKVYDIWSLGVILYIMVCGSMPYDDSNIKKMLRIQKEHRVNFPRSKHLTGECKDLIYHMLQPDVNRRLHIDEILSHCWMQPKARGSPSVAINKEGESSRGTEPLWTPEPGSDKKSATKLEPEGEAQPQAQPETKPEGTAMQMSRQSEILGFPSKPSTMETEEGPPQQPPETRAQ
# [2] = target: Protein-tyrosine kinase 6 (Homo sapiens) (UniProt Q13882); assay: Inhibition of BRK (unknown origin) assessed as remaining activity at 1 uM by Kinome scan method relative to control
# [3] = target: T2, cGMP-dependent protein kinase 2 (Homo sapiens) (UniProt Q13237); assay: Inhibition of PRKG2 (unknown origin) assessed as remaining activity at 1 uM by Kinome scan method relative to control
# T2 sequence (whole entry): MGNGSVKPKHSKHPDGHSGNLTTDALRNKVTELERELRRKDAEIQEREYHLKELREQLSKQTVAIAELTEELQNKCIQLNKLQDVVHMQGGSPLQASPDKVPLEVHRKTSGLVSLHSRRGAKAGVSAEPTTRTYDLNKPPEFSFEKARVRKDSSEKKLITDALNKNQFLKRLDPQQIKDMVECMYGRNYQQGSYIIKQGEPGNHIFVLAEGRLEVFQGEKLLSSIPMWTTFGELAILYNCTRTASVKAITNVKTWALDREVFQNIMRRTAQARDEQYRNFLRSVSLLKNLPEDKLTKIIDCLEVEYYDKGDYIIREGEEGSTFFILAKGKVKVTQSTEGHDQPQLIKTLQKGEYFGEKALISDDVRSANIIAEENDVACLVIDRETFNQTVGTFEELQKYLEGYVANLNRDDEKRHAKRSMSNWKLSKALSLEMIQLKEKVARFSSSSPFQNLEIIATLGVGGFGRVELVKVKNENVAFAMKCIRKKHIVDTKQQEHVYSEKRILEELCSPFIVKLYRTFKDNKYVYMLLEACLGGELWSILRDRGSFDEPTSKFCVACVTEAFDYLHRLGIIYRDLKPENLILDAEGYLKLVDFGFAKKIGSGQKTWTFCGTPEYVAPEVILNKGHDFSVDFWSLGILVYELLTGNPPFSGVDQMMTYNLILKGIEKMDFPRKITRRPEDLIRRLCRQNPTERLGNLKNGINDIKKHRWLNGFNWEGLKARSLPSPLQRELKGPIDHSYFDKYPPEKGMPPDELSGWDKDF
# [4] = target: Serine/threonine-protein kinase MRCK gamma (Homo sapiens) (UniProt Q6DT37); assay: Inhibition of DMPK2 (unknown origin) assessed as remaining activity at 1 uM by Kinome scan method relative to control
# [5] = target: Insulin receptor (Homo sapiens) (UniProt P06213); assay: Inhibition of INSR (unknown origin) assessed as remaining activity at 1 uM by Kinome scan method relative to control
# [6] = system: Tyrosine-protein kinase ABL1 (Homo sapiens), P00519 [E255K]; assay: Inhibition of ABL1 E255K mutant (unknown origin) assessed as remaining activity at 1 uM by Kinome scan method relative to control
# [7] = target: TRAF2 and NCK-interacting protein kinase (Homo sapiens) (UniProt Q9UKE5); assay: Inhibition of TNIK (unknown origin) assessed as remaining activity at 1 uM by Kinome scan method relative to control
# [8] = target: Mitogen-activated protein kinase kinase kinase 12 (Homo sapiens) (UniProt Q12852); assay: Inhibition of DLK (unknown origin) assessed as remaining activity at 1 uM by Kinome scan method relative to control
# [9] = target: Phosphorylase b kinase gamma catalytic chain, skeletal muscle/heart isoform (Homo sapiens) (UniProt Q16816); assay: Inhibition of PHKG1 (unknown origin) assessed as remaining activity at 1 uM by Kinome scan method relative to control
# [10] = target: Phosphatidylinositol 5-phosphate 4-kinase type-2 beta (Homo sapiens) (UniProt P78356); assay: Inhibition of PIP5K2B (unknown origin) assessed as remaining activity at 1 uM by Kinome scan method relative to control
# [11] = target: cAMP-dependent protein kinase catalytic subunit beta (Homo sapiens) (UniProt P22694); assay: Inhibition of PKAC-beta (unknown origin) assessed as remaining activity at 1 uM by Kinome scan method relative to control
# [12] = target: Mitogen-activated protein kinase 7 (Homo sapiens) (UniProt Q13164); assay: Inhibition of ERK5 (unknown origin) assessed as remaining activity at 1 uM by Kinome scan method relative to control
# Chain of Mitogen-activated protein kinase 7 (Homo sapiens) (Q13164 2-816 limits assumed): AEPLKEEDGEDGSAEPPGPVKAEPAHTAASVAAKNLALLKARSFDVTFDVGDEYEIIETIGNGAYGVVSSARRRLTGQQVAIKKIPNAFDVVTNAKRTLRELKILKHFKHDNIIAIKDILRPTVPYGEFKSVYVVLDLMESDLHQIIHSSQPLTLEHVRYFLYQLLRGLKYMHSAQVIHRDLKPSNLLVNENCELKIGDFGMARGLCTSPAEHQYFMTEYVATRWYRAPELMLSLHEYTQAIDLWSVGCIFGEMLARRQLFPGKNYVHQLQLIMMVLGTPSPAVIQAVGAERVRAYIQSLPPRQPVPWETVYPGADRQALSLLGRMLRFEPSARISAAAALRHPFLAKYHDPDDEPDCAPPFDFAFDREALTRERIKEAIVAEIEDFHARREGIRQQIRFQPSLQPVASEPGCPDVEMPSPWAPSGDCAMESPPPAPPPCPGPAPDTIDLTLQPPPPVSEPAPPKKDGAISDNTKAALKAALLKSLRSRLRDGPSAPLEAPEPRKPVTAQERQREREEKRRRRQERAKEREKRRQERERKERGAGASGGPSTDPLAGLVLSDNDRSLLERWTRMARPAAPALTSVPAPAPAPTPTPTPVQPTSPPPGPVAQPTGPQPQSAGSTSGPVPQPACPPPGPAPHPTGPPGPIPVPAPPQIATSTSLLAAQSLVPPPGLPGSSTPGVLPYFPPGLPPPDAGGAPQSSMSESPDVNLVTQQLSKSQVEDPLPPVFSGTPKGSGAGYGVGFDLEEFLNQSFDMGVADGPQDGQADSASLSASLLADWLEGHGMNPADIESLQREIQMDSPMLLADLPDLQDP
# Chain of Protein-tyrosine kinase 6 (Homo sapiens) (Q13882 whole entry, looked up): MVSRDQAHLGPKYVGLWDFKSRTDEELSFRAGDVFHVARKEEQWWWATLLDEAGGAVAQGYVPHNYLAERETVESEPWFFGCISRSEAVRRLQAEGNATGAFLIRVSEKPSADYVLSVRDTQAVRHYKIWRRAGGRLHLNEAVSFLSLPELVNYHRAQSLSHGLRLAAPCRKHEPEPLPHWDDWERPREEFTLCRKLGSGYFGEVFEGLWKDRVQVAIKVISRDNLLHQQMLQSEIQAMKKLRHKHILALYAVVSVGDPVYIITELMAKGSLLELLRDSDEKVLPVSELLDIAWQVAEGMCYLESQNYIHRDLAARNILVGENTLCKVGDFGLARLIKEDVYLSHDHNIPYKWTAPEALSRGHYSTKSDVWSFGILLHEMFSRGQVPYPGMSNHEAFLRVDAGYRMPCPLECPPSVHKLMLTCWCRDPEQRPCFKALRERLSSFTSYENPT
# Chain of Insulin receptor (Homo sapiens) (P06213 28-758 limits assumed): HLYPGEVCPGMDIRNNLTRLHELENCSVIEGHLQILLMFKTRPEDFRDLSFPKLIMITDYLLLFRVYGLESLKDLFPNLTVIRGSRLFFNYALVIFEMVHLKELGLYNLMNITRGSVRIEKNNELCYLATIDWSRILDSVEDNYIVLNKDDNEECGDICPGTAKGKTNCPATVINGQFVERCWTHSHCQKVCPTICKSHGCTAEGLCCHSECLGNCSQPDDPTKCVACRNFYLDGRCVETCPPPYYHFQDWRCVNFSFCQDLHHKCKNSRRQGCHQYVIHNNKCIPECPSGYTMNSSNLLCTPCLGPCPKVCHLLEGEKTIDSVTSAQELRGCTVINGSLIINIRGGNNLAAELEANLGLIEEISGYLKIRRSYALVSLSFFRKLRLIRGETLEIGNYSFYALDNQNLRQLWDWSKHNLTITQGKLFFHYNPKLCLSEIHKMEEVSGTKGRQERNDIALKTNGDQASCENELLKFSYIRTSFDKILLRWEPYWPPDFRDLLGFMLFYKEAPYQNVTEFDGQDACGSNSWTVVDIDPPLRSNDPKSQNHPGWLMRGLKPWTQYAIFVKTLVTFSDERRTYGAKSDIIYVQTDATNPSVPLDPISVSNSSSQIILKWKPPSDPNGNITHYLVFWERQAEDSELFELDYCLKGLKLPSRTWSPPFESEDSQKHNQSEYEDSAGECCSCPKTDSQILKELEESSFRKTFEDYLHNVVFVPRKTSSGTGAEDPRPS
# Chain of Insulin receptor (Homo sapiens) (P06213 763-1382 limits assumed): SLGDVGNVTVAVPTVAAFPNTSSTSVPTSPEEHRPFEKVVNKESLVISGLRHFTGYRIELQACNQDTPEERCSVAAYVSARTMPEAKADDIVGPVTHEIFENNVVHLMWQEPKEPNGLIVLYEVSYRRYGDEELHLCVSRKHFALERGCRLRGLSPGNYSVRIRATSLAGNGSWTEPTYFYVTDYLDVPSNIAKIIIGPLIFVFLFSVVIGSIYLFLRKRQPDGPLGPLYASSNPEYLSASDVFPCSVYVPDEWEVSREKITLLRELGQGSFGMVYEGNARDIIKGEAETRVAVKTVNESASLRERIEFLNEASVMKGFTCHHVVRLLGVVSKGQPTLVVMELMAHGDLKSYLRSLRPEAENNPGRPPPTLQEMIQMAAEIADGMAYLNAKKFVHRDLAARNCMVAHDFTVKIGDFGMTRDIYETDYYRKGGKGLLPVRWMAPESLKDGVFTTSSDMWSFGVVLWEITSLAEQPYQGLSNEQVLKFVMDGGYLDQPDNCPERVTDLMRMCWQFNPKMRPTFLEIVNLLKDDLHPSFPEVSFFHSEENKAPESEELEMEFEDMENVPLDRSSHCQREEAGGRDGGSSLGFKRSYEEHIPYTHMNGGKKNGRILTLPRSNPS
# Chain of Tyrosine-protein kinase ABL1 (Homo sapiens), P00519 [E255K] (P00519 whole entry E255K): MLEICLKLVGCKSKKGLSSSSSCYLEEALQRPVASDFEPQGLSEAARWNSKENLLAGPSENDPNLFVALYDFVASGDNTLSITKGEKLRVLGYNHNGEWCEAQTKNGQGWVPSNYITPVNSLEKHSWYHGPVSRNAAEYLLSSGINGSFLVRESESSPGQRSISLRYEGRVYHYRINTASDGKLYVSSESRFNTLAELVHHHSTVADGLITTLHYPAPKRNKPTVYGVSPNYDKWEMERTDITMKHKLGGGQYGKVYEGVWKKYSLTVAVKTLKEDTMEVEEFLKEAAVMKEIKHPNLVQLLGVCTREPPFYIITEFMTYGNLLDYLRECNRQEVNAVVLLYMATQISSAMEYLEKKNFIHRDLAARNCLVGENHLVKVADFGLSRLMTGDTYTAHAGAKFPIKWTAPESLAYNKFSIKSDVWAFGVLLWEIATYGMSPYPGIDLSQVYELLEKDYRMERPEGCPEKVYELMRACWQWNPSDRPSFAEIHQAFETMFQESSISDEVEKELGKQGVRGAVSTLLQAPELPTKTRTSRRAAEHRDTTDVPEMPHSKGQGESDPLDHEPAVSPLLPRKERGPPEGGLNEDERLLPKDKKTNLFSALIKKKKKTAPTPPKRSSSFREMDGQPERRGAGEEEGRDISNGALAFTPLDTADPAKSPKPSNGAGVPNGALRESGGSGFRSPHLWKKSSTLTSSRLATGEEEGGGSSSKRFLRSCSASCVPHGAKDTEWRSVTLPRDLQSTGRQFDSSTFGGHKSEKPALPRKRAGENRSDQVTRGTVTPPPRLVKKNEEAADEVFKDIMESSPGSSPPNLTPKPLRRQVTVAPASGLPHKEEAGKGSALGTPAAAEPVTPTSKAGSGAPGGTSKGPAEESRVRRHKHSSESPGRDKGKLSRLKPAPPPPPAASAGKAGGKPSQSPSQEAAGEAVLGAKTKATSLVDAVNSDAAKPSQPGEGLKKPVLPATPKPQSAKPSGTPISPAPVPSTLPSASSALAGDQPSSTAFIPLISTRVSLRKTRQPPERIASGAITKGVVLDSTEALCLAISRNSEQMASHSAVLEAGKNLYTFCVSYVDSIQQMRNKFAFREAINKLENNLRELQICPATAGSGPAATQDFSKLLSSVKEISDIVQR
# Chain of Phosphatidylinositol 5-phosphate 4-kinase type-2 beta (Homo sapiens) (P78356 whole entry): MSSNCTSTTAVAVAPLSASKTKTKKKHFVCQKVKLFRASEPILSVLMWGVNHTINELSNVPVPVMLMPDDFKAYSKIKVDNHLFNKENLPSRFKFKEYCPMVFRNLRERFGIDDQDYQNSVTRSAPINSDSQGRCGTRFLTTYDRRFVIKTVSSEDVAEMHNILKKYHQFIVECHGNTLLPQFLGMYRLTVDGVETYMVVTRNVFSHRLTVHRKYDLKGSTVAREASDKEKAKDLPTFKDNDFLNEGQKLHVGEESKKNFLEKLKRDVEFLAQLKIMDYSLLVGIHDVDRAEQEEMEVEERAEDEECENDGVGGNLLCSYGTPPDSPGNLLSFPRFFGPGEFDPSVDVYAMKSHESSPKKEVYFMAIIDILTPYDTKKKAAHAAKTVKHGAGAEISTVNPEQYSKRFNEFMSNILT
# Chain of Mitogen-activated protein kinase kinase kinase 12 (Homo sapiens) (Q12852 whole entry, canonical isoform): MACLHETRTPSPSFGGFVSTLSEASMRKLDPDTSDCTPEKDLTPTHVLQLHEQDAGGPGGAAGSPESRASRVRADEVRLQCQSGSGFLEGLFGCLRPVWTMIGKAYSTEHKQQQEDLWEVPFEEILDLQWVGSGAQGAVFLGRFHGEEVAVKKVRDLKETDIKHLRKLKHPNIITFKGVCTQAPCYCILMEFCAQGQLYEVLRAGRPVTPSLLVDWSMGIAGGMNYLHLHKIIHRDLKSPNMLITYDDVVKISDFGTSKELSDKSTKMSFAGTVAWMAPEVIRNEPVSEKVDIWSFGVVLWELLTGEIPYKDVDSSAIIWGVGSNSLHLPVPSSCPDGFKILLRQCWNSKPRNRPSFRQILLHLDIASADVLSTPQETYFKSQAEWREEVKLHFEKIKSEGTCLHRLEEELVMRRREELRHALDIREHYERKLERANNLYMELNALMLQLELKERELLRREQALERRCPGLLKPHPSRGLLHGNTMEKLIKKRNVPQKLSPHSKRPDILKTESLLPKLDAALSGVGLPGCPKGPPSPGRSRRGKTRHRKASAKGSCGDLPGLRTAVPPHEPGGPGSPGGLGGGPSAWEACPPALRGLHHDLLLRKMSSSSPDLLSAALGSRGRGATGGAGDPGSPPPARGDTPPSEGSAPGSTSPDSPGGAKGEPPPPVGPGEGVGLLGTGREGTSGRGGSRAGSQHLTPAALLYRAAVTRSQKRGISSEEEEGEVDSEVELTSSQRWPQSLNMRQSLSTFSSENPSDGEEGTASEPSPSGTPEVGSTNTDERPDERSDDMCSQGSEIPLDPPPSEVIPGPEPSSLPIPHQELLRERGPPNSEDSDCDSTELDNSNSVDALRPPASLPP
SMILES,Activity [1] [%],Activity [2] [%],Activity [3] [%],Activity [4] [%],Activity [5] [%],Activity [6] [%],Activity [7] [%],Activity [8] [%],Activity [9] [%],Activity [10] [%],Activity [11] [%],Activity [12] [%]
Nc1ccccc1Nc1ccc2c(c1)CCc1ccccc1C2=O,95,97,91,92,83,81,90,98,92,86,88,96
O=C1c2ccc(Nc3ccc(F)cc3F)cc2CCc2ccc(OC[C@H](O)CO)cc21 [Skepinone-L],84,98,100,100,99,96,93,94,97,100,74,99
